The values that follow come from patent US20030087963A1, “Methods of preparing and using 2-hydroxy derivatives of sibutramine and its metabolites” (priority 2001, published 2003).

Experiment [1] has as its target T1, functional uptake of dopamine (DA) (Rattus norvegicus, UniProt P23977).
T1 construct: synaptosomes prepared from rat whole brain, hypothalamus, or corpora striata, respectively; from tissue; host or cells: rat corpora striata synaptosomes
The experiment in a line: Inhibition of functional uptake of dopamine (DA) into synaptosomes from rat corpora striata. Format: biochemical. As to the method:
(§1) The 2-hydroxy derivatives of the sibutramine metabolites N-desmethyl and N-didesmethylsibutramine (DMS and DDMS, respectively) were tested for their inhibition of functional uptake of serotonin (5-HT), norepinephrine (NE), or dopamine (DA), into synaptosomes prepared from rat whole brain, hypothalamus, or corpora striata, respectively, using methods known in the art. In addition, binding was determined at the nonselective muscarinic receptor and the […] from rat cerebral cortex and rat adipose tissue, respectively.
(§2) IC50 values (concentration inhibiting control activity by 50 percent) were then determined by nonlinear regression analysis of the inhibition curves and tabulated below.

For experiment [2], the target named is T2, functional uptake of norepinephrine (NE) (Rattus norvegicus, UniProt Q63380).
T2 construct: synaptosomes prepared from rat whole brain, hypothalamus, or corpora striata, respectively; from tissue; host or cells: rat hypothalamus synaptosomes
The experiment can be described thus: Inhibition of functional uptake of norepinephrine (NE) into synaptosomes from rat hypothalamus. The class given is biochemical. Here is the method:
as §1, §2

Experiment [3] concerns the target T3, functional uptake of serotonin (5-HT) (Rattus norvegicus, UniProt P31652).
T3 construct: synaptosomes prepared from rat whole brain, hypothalamus, or corpora striata, respectively; from tissue; host or cells: rat whole brain synaptosomes
The experiment can be described thus: Inhibition of functional uptake of serotonin (5-HT) into synaptosomes from rat whole brain. Format: biochemical. Here is the method: as §1, §2

The target in experiment [4] is nonselective muscarinic receptor. The experiment in a line: Binding at the nonselective muscarinic receptor from rat cerebral cortex. As to the method:
as §1, §2

[5] abbreviates: synaptosomes from rat hypothalamus, read-out: IC50, NE functional uptake.

Structures are written as SMILES. Where two headings read alike, the source gives them in different places.

T2 sequence (Q63380 1-617): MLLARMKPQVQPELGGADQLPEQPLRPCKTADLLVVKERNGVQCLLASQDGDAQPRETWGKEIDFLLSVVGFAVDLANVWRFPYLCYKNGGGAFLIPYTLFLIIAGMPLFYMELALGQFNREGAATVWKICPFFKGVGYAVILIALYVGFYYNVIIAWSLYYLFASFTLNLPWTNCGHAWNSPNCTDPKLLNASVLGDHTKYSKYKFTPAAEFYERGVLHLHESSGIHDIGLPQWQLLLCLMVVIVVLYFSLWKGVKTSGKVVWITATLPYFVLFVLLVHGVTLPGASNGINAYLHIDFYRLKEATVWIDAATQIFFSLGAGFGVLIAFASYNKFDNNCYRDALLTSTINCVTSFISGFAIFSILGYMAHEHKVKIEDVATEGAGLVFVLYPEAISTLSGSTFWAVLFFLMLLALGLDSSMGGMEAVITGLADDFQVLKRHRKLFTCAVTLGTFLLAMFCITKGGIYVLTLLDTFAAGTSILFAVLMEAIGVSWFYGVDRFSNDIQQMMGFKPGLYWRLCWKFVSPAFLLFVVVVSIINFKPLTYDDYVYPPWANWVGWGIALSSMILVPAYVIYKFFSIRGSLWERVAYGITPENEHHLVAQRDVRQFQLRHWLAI
T3 sequence (P31652 whole entry): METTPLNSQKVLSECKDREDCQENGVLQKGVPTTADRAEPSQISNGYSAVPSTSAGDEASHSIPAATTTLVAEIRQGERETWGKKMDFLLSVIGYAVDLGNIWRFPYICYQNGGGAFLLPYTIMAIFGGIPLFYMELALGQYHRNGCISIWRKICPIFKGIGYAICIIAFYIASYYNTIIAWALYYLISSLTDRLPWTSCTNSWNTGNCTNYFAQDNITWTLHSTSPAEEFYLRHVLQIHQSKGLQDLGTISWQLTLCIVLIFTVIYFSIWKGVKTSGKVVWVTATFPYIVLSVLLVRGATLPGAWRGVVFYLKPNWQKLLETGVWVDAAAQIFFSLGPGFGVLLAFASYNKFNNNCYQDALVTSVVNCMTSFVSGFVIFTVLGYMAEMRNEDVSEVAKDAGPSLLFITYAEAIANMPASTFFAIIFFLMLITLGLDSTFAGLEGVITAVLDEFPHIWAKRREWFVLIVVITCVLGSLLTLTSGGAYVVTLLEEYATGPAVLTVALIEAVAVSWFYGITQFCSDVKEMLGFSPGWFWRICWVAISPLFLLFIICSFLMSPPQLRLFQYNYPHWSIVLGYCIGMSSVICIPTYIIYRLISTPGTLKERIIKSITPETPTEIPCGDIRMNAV
T1 sequence (P23977 whole entry): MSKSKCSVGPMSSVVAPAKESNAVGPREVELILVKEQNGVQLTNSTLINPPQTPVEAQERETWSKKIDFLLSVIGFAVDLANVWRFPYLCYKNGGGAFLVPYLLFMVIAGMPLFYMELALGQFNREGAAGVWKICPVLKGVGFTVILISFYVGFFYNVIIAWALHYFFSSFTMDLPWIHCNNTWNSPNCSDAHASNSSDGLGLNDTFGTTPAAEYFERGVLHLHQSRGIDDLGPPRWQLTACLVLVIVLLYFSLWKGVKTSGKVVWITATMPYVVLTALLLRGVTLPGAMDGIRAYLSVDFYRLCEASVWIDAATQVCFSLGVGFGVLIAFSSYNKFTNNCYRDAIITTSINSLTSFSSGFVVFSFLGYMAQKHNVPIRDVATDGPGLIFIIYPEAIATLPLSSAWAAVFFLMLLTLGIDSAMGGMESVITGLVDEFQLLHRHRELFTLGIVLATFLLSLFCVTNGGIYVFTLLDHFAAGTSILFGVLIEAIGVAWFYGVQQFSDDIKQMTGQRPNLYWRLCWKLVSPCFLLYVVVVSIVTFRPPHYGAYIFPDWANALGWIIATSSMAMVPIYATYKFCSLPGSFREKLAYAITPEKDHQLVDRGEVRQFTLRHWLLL

Take `CC(C)(O)C[C@@H](N)C1(c2ccc(Cl)cc2)CCC1` [2-(R)-OH-DDMS, (R)-(−)-4-amino-[1-(4-chlorophenyl)cyclobutyl]-2-methyl-butan-2-ol]: the IC50 amounted to 18 nM in experiment [1], 6.2 nM in experiment [2] (setting [5]) and 7.2 nM in experiment [3].

With `CN[C@H](CC(C)(C)O)C1(c2ccc(Cl)cc2)CCC1` [2-(R)-OH-DMS, (R)-(+)-4-[1-(4-Chloro-phenyl)-cyclobutyl]-2-methyl-4-methylamino-butan-2-ol], the IC50 came to 48 nM in experiment [1], 23 nM in experiment [2], 22 nM in experiment [3] and 8970 nM in experiment [4].

Turning to `CC(C)(O)C[C@H](N)C1(c2ccc(Cl)cc2)CCC1` [2-(S)-OH-DDMS, (S)-(+)-4-amino-[1-(4-chlorophenyl)cyclobutyl]-2-methyl-butan-2-ol], the IC50 in experiment [1] worked out at 59 nM; in experiment [2] (setting [5]) it was 71 nM; in experiment [3] it was 670 nM.

Consider `CN[C@@H](CC(C)(C)O)C1(c2ccc(Cl)cc2)CCC1` [2-(S)-OH-DMS], for which the 50% inhibitory concentration (IC50) in experiment [1] turned out to be 370 nM; in experiment [2], 310 nM; in experiment [3], 5400 nM; in experiment [4], 4480 nM.

The molecule `CN1[C@@H]2CC[C@H]1C[C@@H](OC(=O)C(CO)c1ccccc1)C2` (stereo partly drawn) [Atropine, reference compound] gave a concentration for half-maximal inhibition (IC50) in experiment [4] of 0.38 nM.

By IC50 is commonly meant the concentration at which inhibition is half-maximal.
